# Test results as given in patent US8999358B2, “Aqueous insecticidal compositions and the use thereof for protecting lignocellulose-containing materials” (BASF Aktiengesellschaft, priority 2005, dated 2015).
# System: wood-destroying soil-dwelling termites (Reticulitermes santonensis)
# Assay: Laboratory termite resistance test of treated wood specimens (AWPA E1-97) after leaching according to DIN EN 84
# Type: in vivo
# Conditions: Test termite R. santonensis; Pinus spp. (Southern Yellow Pine) specimens 25x25x6 mm^3; AWPA E1-97, 4 weeks; α-cypermethrin concentration in wood giving score 10 to 9
# Method: The aqueous active ingredient composition according to the invention of Example 3 was diluted with water to three different active ingredient concentrations. For comparison purposes, the anionic dispersion D6, which is not in accordance with the invention, was studied, and α-cypermethrin was dissolved in acetone, and the solution was diluted with further acetone to give the active ingredient concentrations in question.
# To determine the limits of the efficacy of the composition according to the invention with regard to wood-destroying soil-dwelling termites (Reticulitermes santonensis), wood specimens of Pinus spp. with the dimensions 25×25×6 mm^3 (Southern Yellow Pine) were tested in accordance with the American test standard AWPA E1-97 (see, in this context, “Standard method for laboratory evaluation to determine resistance to subterranean termites”, American Wood-Preservers' Association, 2001) under constrained experimental conditions after leaching according to DIN EN 84: 1997-01 (see, in this context, “accelerated aging of treated timber before biological tests”, European standardization committee).
# The destruction of the timber caused by attack by the termites was registered after 4 weeks of testing by visually scoring the timber specimens as specified in AWPA E1-97. In addition, the mortality rate among the termites was estimated. […]
structure (smiles),measurement,value
"CC1(C)C(C=C(Cl)Cl)C1C(=O)OC(C#N)c1cccc(Oc2ccccc2)c1 (stereo not drawn) [Solution of α-cypermethrin, α-cypermethrin]",Limits of the efficacy after leaching (EN 84),29-40 g/m^3
